Test results published in patent US8513283B2, “Spiro substituted compounds as angiogenesis inhibitors” (Advenchen Laboratories, LLC, priority 2007, dated 2013).

Key:
[1] = test system: human colon cancer HT29 xenograft; assay: animal antitumor activity, HT29 xenograft; type: in vivo, mice; conditions: FIG. 1
c-RAF(h) = c-RAF(h) (Homo sapiens, UniProt P04049); assay: in vitro kinase inhibition; type: biochemical
From the text: (§1) Several in vitro tyrosine kinase inhibition activities can be measured according to the description in Rewcastle, G W, J. Med. Chem. 1996, 39, 918-928 and Edwards M, International Biotechnology Lab 5 (3), 19-25, 1987. Oncogene, 1990, 5: 519-524. The Baculovirus Expression System: A Laboratory Guide, L. A. King 1992. Sambrook et al, 1989, Molecular cloning—A Laboratory Manual, 2nd edition, Cold Spring Harbour Laboratory Press. O'Reilly et al, 1992, Baculovirus Expression Vectors—A Laboratory Manual, W. H. Freeman and Co, New York.
(§2) Receptor tyrosine kinase can be obtained in partially purified form from A-431 cells similar to those described by Carpenter et al., J. Biol. Chem., 1979, 254, 4884, Cohen et al., J. Biol. Chem., 1982, 257, 1523 and by Braun et al., J. Biol. Chem., 1984, 259, 2051. Some of these tests can also be contracted with Millipore Upstate Ltd for screening.

Flt1(h) = Flt1(h) (Homo sapiens, UniProt P17948); assay: in vitro tyrosine kinase inhibition; type: biochemical
Flt1(h), sequence (P17948 27-1338): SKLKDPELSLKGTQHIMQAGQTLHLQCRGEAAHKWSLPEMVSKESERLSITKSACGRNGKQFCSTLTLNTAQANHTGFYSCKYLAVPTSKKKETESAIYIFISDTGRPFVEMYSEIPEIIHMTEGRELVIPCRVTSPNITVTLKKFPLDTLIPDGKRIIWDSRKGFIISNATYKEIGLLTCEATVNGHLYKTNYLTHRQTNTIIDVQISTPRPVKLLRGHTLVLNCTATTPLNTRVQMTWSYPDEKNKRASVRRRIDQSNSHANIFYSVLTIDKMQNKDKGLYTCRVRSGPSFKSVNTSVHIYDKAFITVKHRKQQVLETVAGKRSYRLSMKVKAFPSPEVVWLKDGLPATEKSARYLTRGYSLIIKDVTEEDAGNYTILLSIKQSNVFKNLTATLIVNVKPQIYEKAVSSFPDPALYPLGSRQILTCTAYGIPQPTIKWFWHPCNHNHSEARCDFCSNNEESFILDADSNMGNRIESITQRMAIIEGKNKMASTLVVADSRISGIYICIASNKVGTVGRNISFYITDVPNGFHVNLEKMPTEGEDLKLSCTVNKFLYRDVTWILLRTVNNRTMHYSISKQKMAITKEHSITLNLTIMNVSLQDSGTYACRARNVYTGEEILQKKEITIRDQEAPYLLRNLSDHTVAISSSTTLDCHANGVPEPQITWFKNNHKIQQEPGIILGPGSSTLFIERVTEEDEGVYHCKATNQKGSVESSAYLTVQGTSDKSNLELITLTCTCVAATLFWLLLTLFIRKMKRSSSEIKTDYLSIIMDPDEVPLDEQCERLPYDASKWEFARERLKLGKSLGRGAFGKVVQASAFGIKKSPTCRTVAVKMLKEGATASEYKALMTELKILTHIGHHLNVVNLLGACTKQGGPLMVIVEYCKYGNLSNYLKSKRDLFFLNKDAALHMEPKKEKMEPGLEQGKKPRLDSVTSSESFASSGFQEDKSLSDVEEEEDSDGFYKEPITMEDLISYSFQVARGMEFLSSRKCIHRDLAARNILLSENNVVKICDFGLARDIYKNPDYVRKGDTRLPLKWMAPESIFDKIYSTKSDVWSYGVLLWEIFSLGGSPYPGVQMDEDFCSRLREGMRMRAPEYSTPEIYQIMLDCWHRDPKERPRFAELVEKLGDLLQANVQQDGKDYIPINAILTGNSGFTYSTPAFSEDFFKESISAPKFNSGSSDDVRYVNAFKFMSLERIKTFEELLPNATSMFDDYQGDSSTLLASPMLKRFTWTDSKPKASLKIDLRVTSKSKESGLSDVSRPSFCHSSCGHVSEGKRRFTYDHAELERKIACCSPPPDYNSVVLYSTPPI
From the text: as §1, §2

cKit(h) = cKit(h) (Homo sapiens, UniProt P10721); assay: in vitro tyrosine kinase inhibition; type: biochemical
cKit(h), sequence (P10721 26-976): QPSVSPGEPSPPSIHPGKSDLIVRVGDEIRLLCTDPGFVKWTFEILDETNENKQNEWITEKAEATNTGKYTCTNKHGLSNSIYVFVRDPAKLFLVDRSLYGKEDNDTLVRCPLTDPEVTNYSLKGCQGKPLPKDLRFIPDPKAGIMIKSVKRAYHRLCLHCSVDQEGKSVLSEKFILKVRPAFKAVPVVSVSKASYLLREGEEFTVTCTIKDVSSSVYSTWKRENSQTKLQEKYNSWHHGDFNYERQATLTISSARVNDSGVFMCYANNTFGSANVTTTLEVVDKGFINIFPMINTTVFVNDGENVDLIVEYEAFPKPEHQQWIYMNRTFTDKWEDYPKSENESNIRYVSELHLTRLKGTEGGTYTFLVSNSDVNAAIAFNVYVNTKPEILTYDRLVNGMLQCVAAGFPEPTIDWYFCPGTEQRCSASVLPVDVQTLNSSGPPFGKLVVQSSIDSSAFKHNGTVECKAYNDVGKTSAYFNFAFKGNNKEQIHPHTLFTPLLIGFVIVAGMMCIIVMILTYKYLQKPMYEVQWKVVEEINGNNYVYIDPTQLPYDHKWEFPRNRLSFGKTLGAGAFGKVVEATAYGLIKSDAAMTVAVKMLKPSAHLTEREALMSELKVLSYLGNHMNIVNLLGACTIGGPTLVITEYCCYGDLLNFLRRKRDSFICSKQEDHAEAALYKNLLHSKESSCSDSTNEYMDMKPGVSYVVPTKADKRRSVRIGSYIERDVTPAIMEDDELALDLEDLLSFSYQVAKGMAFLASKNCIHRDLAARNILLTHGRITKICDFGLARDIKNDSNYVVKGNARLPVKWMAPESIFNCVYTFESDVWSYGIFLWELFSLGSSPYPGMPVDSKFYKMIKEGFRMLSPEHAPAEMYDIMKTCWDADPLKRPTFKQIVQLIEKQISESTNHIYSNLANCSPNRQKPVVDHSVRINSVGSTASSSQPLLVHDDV
From the text: as §1, §2

PDGFRα(h) = PDGFRα(h) (Homo sapiens, UniProt P16234); assay: in vitro tyrosine kinase inhibition; type: biochemical
PDGFRα(h), sequence (P16234 24-1089): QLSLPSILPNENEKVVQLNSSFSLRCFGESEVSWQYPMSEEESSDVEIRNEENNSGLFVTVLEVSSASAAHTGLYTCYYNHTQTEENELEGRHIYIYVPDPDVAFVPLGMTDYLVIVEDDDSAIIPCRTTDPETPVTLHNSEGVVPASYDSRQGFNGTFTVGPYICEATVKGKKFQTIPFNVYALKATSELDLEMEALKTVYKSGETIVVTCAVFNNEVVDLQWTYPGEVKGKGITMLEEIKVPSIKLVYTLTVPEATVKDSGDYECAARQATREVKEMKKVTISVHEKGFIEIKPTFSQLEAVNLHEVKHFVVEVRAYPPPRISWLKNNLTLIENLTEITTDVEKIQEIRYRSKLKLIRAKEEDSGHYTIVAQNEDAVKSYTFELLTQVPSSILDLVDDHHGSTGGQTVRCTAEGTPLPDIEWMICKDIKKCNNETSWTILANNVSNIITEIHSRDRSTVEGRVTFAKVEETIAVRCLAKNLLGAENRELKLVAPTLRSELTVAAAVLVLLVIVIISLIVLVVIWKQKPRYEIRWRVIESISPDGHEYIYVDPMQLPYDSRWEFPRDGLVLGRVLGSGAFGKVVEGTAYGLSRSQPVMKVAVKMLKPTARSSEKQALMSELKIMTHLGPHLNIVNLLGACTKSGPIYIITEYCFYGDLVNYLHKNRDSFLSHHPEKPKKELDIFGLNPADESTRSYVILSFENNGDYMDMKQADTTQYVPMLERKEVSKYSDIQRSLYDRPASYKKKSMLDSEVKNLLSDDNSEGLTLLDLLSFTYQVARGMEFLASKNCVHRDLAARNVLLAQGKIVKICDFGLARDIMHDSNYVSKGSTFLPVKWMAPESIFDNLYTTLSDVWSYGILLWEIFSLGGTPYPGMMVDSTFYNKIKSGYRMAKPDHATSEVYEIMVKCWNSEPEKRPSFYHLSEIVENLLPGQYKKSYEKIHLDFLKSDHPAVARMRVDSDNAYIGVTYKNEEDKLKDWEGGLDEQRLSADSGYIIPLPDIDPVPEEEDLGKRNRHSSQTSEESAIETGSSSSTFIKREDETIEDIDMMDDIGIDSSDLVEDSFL
From the text: as §1, §2

Flt4(h) = Flt4(h) (Homo sapiens, UniProt P35916); assay: in vitro tyrosine kinase inhibition; type: biochemical
From the text: as §1, §2

KDR(h) = KDR(h) (Homo sapiens, UniProt P35968); assay: in vitro tyrosine kinase inhibition; type: biochemical
[2] = test system: human liver cancer Bel-7402 xenograft; assay: animal antitumor activity, Bel-7402 xenograft; type: in vivo, mice; conditions: FIG. 2

c-RAF(h), sequence (P04049 whole entry): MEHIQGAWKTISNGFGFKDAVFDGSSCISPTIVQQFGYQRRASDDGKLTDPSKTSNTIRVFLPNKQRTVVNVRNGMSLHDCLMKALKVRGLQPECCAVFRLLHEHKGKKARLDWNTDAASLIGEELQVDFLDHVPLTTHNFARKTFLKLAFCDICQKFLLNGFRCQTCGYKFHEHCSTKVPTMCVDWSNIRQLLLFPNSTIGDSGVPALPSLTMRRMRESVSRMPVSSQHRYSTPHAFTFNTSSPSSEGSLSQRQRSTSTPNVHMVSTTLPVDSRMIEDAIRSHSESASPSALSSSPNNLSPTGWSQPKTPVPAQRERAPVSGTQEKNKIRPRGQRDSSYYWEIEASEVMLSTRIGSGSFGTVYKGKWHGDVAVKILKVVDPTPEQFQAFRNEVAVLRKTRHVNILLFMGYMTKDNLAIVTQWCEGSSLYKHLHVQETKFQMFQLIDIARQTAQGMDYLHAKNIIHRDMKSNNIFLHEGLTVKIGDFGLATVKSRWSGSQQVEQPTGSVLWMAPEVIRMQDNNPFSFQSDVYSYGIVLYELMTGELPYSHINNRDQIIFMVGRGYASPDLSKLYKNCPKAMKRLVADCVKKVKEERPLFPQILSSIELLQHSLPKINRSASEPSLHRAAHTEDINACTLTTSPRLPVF

IC50 (c-RAF(h)): 293 nM
IC50 (Flt1(h)): 4 nM
IC50 (cKit(h)): 234 nM
IC50 (PDGFRα(h)): 219 nM
IC50 (Flt4(h)): 2 nM
IC50 (KDR(h)): 15 nM
Compound: CNC(=O)c1cccc2cc(Oc3ccnc4cc(OCC5(N)CC5)c(OC)cc34)ccc12 [AL3810]
efficacy on animal model compared with SU11248 [1]: better efficacy than SU11248
efficacy on animal model compared with Nexavar [2]: better efficacy
